# Experimental data taken from US20260325533A1, “CDK INHIBITOR COMPOUNDS” (ALEKSIA THERAPEUTICS, INC., priority 2023, published 2026).
# Read-outs that look alike come from different tables or passages of the source.
# What was measured:
# Type in all cases: biochemical
# CDK4/CCND3 = CDK4/CCND3 (Homo sapiens, UniProt P11802); assay: CDK4 homogeneous time-resolved fluorescence (HTRF) kinase assay; settings: CDK4/CCND; x = IC50 >250 nM; read-out: CDK4/CCND IC50 (>250 nM column)
# Outline: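 IC50s derive from Lance 665 nm or 665/615 nm signals in 11-point, half-log dose series (top 10 μM, 1% DMSO). The enzyme, 1.5 nM CDK4/CCND3, phosphorylates 50 nM ULight-4E-BP1 peptide with 1 mM ATP over 60 min at 23 °C.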
# CDK2/CCNE1 = CDK2/CCNE1 (Homo sapiens, UniProt P24941); assay: CDK2 homogeneous time-resolved fluorescence (HTRF) kinase assay; settings: CDK2/CCNE
# Outline: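 An HTRF format measures CDK2/CCNE1 (3 nM) phosphorylating a 4E-BP1 Thr37/46 peptide at high (1 mM) ATP. Reactions run one hour at 23 °C, then EDTA-quenched and probed with Eu-labelled phospho-specific antibody.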
# CDK6/CCND1 = CDK6/CCND1 (Homo sapiens, UniProt Q00534); assay: CDK6 homogeneous time-resolved fluorescence (HTRF) kinase assay; settings: CDK6/CCND; x = IC50 >250 nM; read-out: CDK6/CCND IC50 (>250 nM column)
# Sequence of CDK6/CCND1 (Q00534 whole entry): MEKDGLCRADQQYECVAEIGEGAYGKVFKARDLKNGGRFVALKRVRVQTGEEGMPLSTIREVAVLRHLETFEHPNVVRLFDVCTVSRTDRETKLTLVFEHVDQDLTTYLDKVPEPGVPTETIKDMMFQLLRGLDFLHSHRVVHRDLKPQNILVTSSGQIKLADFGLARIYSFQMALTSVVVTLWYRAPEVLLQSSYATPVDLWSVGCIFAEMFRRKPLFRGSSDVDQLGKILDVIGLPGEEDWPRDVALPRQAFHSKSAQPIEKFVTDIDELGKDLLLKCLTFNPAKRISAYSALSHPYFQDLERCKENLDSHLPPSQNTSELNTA
# Sequence of CDK6/CCND1 (P24385 whole entry partner): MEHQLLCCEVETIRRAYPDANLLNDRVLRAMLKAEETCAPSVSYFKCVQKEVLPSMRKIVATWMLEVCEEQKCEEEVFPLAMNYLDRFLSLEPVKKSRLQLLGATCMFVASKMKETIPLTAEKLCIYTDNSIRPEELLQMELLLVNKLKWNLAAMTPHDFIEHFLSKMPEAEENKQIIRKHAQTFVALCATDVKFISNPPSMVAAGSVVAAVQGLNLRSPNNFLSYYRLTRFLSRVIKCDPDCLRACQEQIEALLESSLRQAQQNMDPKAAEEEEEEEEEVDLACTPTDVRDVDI
# Outline: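 Assay conditions: HEPES buffer containing 10 mM MgCl2, 1 mM EGTA, 2 mM DTT, 0.01% Tween 20; 1 nM CDK6/CCND1, 50 nM peptide substrate, 1 mM ATP. Detection after 60 min reaction used 2 nM europium antibody with 340 nm excitation. Potency fitted from half-log series, 11 points.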
# CDK1/CCNB1 = CDK1/CCNB1 (Homo sapiens, UniProt P06493); assay: CDK1 homogeneous time-resolved fluorescence (HTRF) kinase assay; settings: CDK1/CCNB
# Sequence of CDK1/CCNB1 (P06493 whole entry): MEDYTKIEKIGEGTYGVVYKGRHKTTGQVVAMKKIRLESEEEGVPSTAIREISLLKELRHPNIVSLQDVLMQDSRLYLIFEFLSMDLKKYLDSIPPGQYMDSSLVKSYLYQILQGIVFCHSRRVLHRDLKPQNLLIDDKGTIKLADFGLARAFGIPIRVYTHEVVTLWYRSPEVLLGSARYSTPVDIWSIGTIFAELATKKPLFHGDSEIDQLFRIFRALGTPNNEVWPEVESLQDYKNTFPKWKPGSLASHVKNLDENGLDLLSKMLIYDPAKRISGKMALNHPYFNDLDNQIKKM
# Sequence of CDK1/CCNB1 (P14635 whole entry partner): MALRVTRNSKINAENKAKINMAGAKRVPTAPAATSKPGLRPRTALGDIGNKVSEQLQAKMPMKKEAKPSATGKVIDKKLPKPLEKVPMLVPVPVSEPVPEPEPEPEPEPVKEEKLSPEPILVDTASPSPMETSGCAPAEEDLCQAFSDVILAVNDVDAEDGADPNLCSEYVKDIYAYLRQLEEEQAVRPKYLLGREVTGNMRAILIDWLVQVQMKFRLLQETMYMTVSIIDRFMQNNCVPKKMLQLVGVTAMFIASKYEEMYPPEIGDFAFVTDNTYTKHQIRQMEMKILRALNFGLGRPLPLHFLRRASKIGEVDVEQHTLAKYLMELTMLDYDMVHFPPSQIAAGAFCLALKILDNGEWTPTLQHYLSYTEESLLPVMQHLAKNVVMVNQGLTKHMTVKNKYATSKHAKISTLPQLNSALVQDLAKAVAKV
# Outline: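 High-ATP (1 mM) HTRF assay with 0.5 nM CDK1/cyclin B1 and 50 nM ULight-4E-BP1 (Thr37/46) substrate, 60 min at 23 °C after 20-min compound preincubation. IC50 values come from dose-response curves.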
# [1] = x = IC50 >250 nM, read-out: CDK1/CCNB IC50 (>250 nM column)
# [2] = x = IC50 <25 nM, read-out: CDK2/CCNE IC50 (<25 nM)
# [3] = x = IC50 25-250 nM, read-out: CDK1/CCNB IC50 (25-250 nM)
# Sequence of CDK4/CCND3 (P11802 whole entry): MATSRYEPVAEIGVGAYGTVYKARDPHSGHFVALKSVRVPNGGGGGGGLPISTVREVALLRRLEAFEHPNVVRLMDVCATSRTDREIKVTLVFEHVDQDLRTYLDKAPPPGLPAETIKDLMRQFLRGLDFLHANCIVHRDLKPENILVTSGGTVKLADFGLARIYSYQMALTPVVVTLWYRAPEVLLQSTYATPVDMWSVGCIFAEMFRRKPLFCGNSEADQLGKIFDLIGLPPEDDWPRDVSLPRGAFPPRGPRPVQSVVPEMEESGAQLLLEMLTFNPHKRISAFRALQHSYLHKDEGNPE
# Sequence of CDK4/CCND3 (P30281 whole entry partner): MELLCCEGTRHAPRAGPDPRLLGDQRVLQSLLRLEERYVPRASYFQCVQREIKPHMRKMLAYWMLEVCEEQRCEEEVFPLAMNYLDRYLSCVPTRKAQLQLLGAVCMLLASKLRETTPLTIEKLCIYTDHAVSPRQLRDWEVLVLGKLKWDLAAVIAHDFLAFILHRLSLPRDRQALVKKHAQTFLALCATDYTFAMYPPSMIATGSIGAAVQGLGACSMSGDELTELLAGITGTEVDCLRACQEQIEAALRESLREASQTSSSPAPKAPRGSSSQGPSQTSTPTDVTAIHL
SMILES,IC50 (CDK4/CCND3),"IC50 (CDK2/CCNE1; x = IC50 >250 nM, read-out: CDK2/CCNE IC50 (>250 nM column))",IC50 (CDK6/CCND1),IC50 (CDK1/CCNB1; [1]),IC50 (CDK2/CCNE1; [2]),IC50 (CDK1/CCNB1; [3])
"CC1(C)C(=O)Nc2cc(C#Cc3nccc4cnc(Nc5ccc(S(C)(=O)=O)cc5C(F)(F)F)cc34)ccc21 [Ex 352, 3,3-dimethyl-6-((7-((4-(methylsulfonyl)-2-(trifluoromethyl)phenyl)amino)-2,6-naphthyridin-1-yl)ethynyl)indolin-2-one]",> 0.25 µM,> 0.25 µM,> 0.25 µM,> 0.25 µM,–,–
"CCS(=O)(=O)c1ccc(Nc2cc3c(C#Cc4ccc5c(c4)NC(=O)C54CC4)nccc3cn2)c(C)c1 [Ex 356, 6'-((7-((4-(ethylsulfonyl)-2-methylphenyl)amino)-2,6-naphthyridin-1-yl)ethynyl)spiro[cyclopropane-1,3'-indolin]-2'-one]",> 0.25 µM,–,> 0.25 µM,–,< 0.025 µM,0.025 to 0.25 µM
"CCS(=O)(=O)c1ccc(Nc2cc3c(C#Cc4ccc5c(c4)NC(=O)C54CC4)nccc3cn2)c(OC)c1 [Ex 357, 6'-((7-((4-(ethylsulfonyl)-2-methoxyphenyl)amino)-2,6-naphthyridin-1-yl)ethynyl)spiro[cyclopropane-1,3'-indolin]-2'-one]",> 0.25 µM,–,> 0.25 µM,> 0.25 µM,< 0.025 µM,–
"COc1cc(S(C)(=O)=O)ccc1Nc1cc2c(C#Cc3ccc4c(c3)NC(=O)C43CCC3)nccc2cn1 [Ex 361, 6'-((7-((2-methoxy-4-(methylsulfonyl)phenyl)amino)-2,6-naphthyridin-1-yl)ethynyl)spiro[cyclobutane-1,3'-indolin]-2'-one]",> 0.25 µM,–,> 0.25 µM,> 0.25 µM,< 0.025 µM,–
"CCC1(CC)C(=O)Nc2cc(C#Cc3nccc4cnc(Nc5ccc(S(=O)(=O)C(C)C)cc5C)cc34)ccc21 [Ex 369, 3,3-diethyl-6-((7-((4-(isopropylsulfonyl)-2-methylphenyl)amino)-2,6-naphthyridin-1-yl)ethynyl)indolin-2-one]",> 0.25 µM,–,> 0.25 µM,> 0.25 µM,< 0.025 µM,–
"CCC1(CC)C(=O)Nc2cc(C#Cc3nccc4cnc(Nc5ccc(S(=O)(=O)CC)cc5C)cc34)ccc21 [Ex 370, 3,3-diethyl-6-((7-((4-(ethylsulfonyl)-2-methylphenyl)amino)-2,6-naphthyridin-1-yl)ethynyl)indolin-2-one]",> 0.25 µM,–,> 0.25 µM,> 0.25 µM,< 0.025 µM,–
"CCC1(CC)C(=O)Nc2cc(C#Cc3nccc4cnc(Nc5ccc(S(=O)(=O)CC)cc5OC)cc34)ccc21 [Ex 371, 3,3-diethyl-6-((7-((4-(ethylsulfonyl)-2-methoxyphenyl)amino)-2,6-naphthyridin-1-yl)ethynyl)indolin-2-one]",> 0.25 µM,–,> 0.25 µM,> 0.25 µM,< 0.025 µM,–
"COc1cc(S(C)(=O)=O)ccc1Nc1cc2c(C#Cc3ccc4c(c3)NC(=O)C43CC3)nccc2cn1 [Ex 375, 6'-((7-((2-methoxy-4-(methylsulfonyl)phenyl)amino)-2,6-naphthyridin-1-yl)ethynyl)spiro[cyclopropane-1,3'-indolin]-2'-one]",> 0.25 µM,–,> 0.25 µM,> 0.25 µM,< 0.025 µM,–
"CC1(C)C(=O)Nc2cc(C#Cc3nccc4cnc(Nc5ccc(S(C)(=O)=O)c(O)c5)cc34)ccc21 [Ex 379, 6-((7-((3-hydroxy-4-(methylsulfonyl)phenyl)amino)-2,6-naphthyridin-1-yl)ethynyl)-3,3-dimethylindolin-2-one]",> 0.25 µM,–,> 0.25 µM,> 0.25 µM,< 0.025 µM,–
"CC1(C)C(=O)Nc2cc(C#Cc3nccc4cnc(Nc5ccc(S(C)(=O)=O)cc5O)cc34)ccc21 [Ex 380, 6-((7-((2-hydroxy-4-(methylsulfonyl)phenyl)amino)-2,6-naphthyridin-1-yl)ethynyl)-3,3-dimethylindolin-2-one]",> 0.25 µM,–,> 0.25 µM,> 0.25 µM,< 0.025 µM,–
"Cc1cc(S(C)(=O)=O)ccc1Nc1cc2c(C#Cc3ccc4c(c3)NC(=O)C43CCC3)nccc2cn1 [Ex 381, 6'-((7-((2-methyl-4-(methylsulfonyl)phenyl)amino)-2,6-naphthyridin-1-yl)ethynyl)spiro[cyclobutane-1,3'-indolin]-2'-one]",> 0.25 µM,–,> 0.25 µM,> 0.25 µM,< 0.025 µM,–
"O=C1Nc2cc(C#Cc3nccc4cnc(Nc5ccc(S(=O)(=O)C6CC6)cc5)cc34)ccc2C12CCC2 [Ex 385, 6'-((7-((4-(cyclopropylsulfonyl)phenyl)amino)-2,6-naphthyridin-1-yl)ethynyl)spiro[cyclobutane-1,3'-indolin]-2'-one]",> 0.25 µM,–,> 0.25 µM,–,< 0.025 µM,0.025 to 0.25 µM
"CC(C)S(=O)(=O)c1ccc(Nc2cc3c(C#Cc4ccc5c(c4)NC(=O)C54CCC4)nccc3cn2)cc1 [Ex 386, 6'-((7-((4-(isopropylsulfonyl)phenyl)amino)-2,6-naphthyridin-1-yl)ethynyl)spiro[cyclobutane-1,3'-indolin]-2'-one]",> 0.25 µM,–,> 0.25 µM,> 0.25 µM,< 0.025 µM,–
"O=C1Nc2cc(C#Cc3nccc4cnc(Nc5ccc(S(=O)(=O)C6CCC6)cc5)cc34)ccc2C12CCC2 [Ex 387, 6'-((7-((4-(cyclobutylsulfonyl)phenyl)amino)-2,6-naphthyridin-1-yl)ethynyl)spiro[cyclobutane-1,3'-indolin]-2'-one]",> 0.25 µM,–,> 0.25 µM,–,< 0.025 µM,0.025 to 0.25 µM
"O=C1Nc2cc(C#Cc3nccc4cnc(Nc5ccc(S(=O)(=O)C6CC6)cc5)cc34)ccc2C12CC2 [Ex 392, 6'-((7-((4-(cyclopropylsulfonyl)phenyl)amino)-2,6-naphthyridin-1-yl)ethynyl)spiro[cyclopropane-1,3'-indolin]-2'-one]",> 0.25 µM,–,> 0.25 µM,–,< 0.025 µM,0.025 to 0.25 µM
"CC(C)S(=O)(=O)c1ccc(Nc2cc3c(C#Cc4ccc5c(c4)NC(=O)C54CC4)nccc3cn2)cc1 [Ex 393, 6'-((7-((4-(isopropylsulfonyl)phenyl)amino)-2,6-naphthyridin-1-yl)ethynyl)spiro[cyclopropane-1,3'-indolin]-2'-one]",> 0.25 µM,–,> 0.25 µM,–,< 0.025 µM,0.025 to 0.25 µM
"O=C1Nc2cc(C#Cc3nccc4cnc(Nc5ccc(S(=O)(=O)C6CCC6)cc5)cc34)ccc2C12CC2 [Ex 394, 6'-((7-((4-(cyclobutylsulfonyl)phenyl)amino)-2,6-naphthyridin-1-yl)ethynyl)spiro[cyclopropane-1,3'-indolin]-2'-one]",> 0.25 µM,–,> 0.25 µM,–,< 0.025 µM,0.025 to 0.25 µM
"CCC1(CC)C(=O)Nc2cc(C#Cc3nccc4cnc(Nc5ccc(S(C)(=O)=O)cc5OC)cc34)ccc21 [Ex 396, 3,3-diethyl-6-((7-((2-methoxy-4-(methylsulfonyl)phenyl)amino)-2,6-naphthyridin-1-yl)ethynyl)indolin-2-one]",> 0.25 µM,–,> 0.25 µM,> 0.25 µM,< 0.025 µM,–
